“And” between values parts separate entries of the source, which are not always exact repeats. Equal entries are not always repeated.
Legend:
[1] = LNP size and polydispersity index (PDI) by dynamic light scattering (Zetasizer); format: physicochemical; conditions: for Size (nm): Formulation No. 010 (Ionizable lipid:DSPC:cholesterol:DSPE-PEG2000 = 38:30:30:2, N/P 6), RNA No. 331
Method: (§1) The LNP size and polydispersity index (PDI), determined by dynamic light scattering (DLS), and zeta potential were measured by a Zetasizer machine (Malvern). RNA concentration and encapsulation efficacy (EE %) were analyzed by the Quant-IT Ribogreen kit by calculating the percentage encapsulation at 100%—(RNA-LNPs/RNA-LNPs with Triton X-100).

[2] = RNA encapsulation efficacy (EE %) by Quant-IT Ribogreen kit; format: physicochemical; conditions: LNP
Method: as §1

Hep G2 cells [3] = test: In vitro expression: luciferase activity in Hep G2 cells transfected with RNA-LNPs; format: cell-based; conditions: 100 ng/mL RNA-LNPs, 72 hours post transfection
Method: 2E5 Hep G2 cells were transfected with 100 ng/mL of RNA-LNPs encoding for firefly-luciferase. At 72 hours post transfection, the cells were washed and lysed. The luciferase expression (2-well repeat) was determined in the cell lysates with the luciferase assay reagent kit (Promega), according to the kit protocol, luciferase activity was measured by a luminometer.

Hep G2 cells [4] = test: In vitro toxicity: Hep G2 cell viability by CellTiter-Glo; format: cell-based; conditions: 72 hours post transfection, cell only = 100%
Method: 2E5 Hep G2 cells were transfected with 1 μg/mL RNA-LNPs. At 72 hours post transfection, cell viability (2-well repeat) was determined with the CellTiter-Glo® reagent kit, according to the kit protocol, measured by a luminometer. Cell only as control (100%).
The cell viability was calculated according to the following formula: […]

Balb/c mice = test: In vivo expression by IV, 0.05 mg/kg luciferase RNA-LNPs, IVIS luminescence; conditions: Formulation No. 010, RNA No. 331, female Balb/c mice, 0.05 mg*kg−1 intravenous; for Whole body at 24 h (p/s) (Mean): 24 hours post injection; for Whole body at 72 h (p/s) (Mean): 72 hours post injection
How it was run: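 Female Balb/c mice (7-8 weeks, N=3) received 0.05 mg*kg−1 firefly-luciferase RNA-LNPs IV. Luciferin (15 mg/ml) was given IP at 24 and 72 h post-dose for IVIS whole-body luminescence. A second run imaged whole body, liver and spleen at 24 h only.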

C57BL/6J mice = test: In vivo expression by ID, whole-body/injection site skin/lymph node luminescence; conditions: intradermal 0.15 mg/kg, 72 h post injection, female C57BL/6J mice N=3, Formulation 001, RNA 331
Method: 7-8 week old, female C57BL/6J mice (N=3) were injected with 0.15 mg*kg−1 of RNA-LNPs encoding for firefly-luciferase by intradermal injection. At 72-hours post injection, animals were intraperitoneally injected with 15 mg/mi of Luciferin substrate and whole-body/injection site skin/lymph node luminescence were determined by a bioluminescent in vivo imaging system (IVIS).

injection site skin = test: In vivo tolerability after intradermal injection: H&E staining of injection site skin; parameters: species or system C57BL/6J mice; key to Infiltration, mononuclear cells, dermis/subcutaneous, focal, Grade / Edema, subcutaneous, focal, Grade / Erosion, focal, Grade / Skin, Grade: 1==minimal; 2=mild; 3=moderate; 4=marked; 5=severe; N=Normal; NA=Not applicable; —=No data; conditions: intradermal 0.15 mg/kg, 72 h, Formulation 001, RNA 331; for Edema, subcutaneous, focal, Grade / Erosion, focal, Grade / Infiltration, mononuclear cells, dermis/subcutaneous, focal, Grade: per animal; for Total score: sum of lesion grades of the group (N=3)
Method: 7-8 week old, female C57BL/6J mice (N=3) were injected with 0.15 mg*kg−1 of RNA-LNIPs encoding for firefly-luciferase by intradermal injection. At 72-hours post injection, injection site skin from each animal was collected in 10% formalin, for H&E staining. PBS group (N=2) as control. (Note: 1==minimal, 2=mild, 3=moderate, 4=marked, 5=severe; N=Normal; NA=Not applicable; —=No data)

hEPO = test: In vivo expression by IM: serum hEPO concentration by ELISA; conditions: IM 0.075 mg/kg, male C57BL/6J mice N=3, Formulation 001, RNA 019
Method: Circular RNA payloads were suspended in 25 mM Acetate Buffer (pH 4.5). To form LNPs, three volumes of human erythropoietin (hEPO) encoding cirRNA (SEQ ID NO:2), were mixed with one volume of lipids in ethanol solution by microfluidic mixing with the INano™ L+ (Micro& Nano) at a flow rate of 12 ml/min. The molar ratio of ionizable lipid to ribonucleotide was 6. After encapsulation, the particles were dialyzed twice against PBS. The LNP formulation was concentrated to targeted RNA concentration by Amicon® Ultra Centrifugal Filter (100 kDa MWCO) and filtered by a 0.65/0.22 um sterile filter.
6-8 week old, male C57BL/6J mice (N=3) were injected with 0.075 mg*kg−1 of RNA-LNPs encoding for hEPO by intramuscular injection. At 2-/6-/24-/48-/72 h-hours post injection, about 80 μL blood will be harvested and immediately added to the procoagulant containing tube. Stand for 30 min at room temperature and then centrifuged at 2500 g×10 min to obtain serum. About 30 μL serum samples will be aliquoted for hEPO concentration detection by ELISA kit (STEMCELL Technologies).

[5] = Formulation No. 001, RNA No. 019 (hEPO)
[6] = Formulation No. 001, RNA No. 331
[7] = Formulation No. 010, RNA No. 331
[8] = Formulation No. 010, RNA No. 331 (firefly-luciferase)
[9] = 1 μg/mL RNA-LNPs, Formulation 001, RNA 331
[10] = Formulation No. 010, RNA No. 331, 1 μg/mL RNA-LNPs

| PDI [1, 5] | PDI [1, 6] | Size [1, 6] | Size (nm) [1] | PDI [1, 7] | EE (%) [2, 6] | EE (%) [2, 7] | Compound | In vitro Expression (Mean) (Hep G2 cells [3]; Formulation 001, RNA 331) | In vitro Expression (Mean) (Hep G2 cells [3]; [8]) | In vitro cell viability (%) (Mean) (Hep G2 cells [4]; [9]) | In vitro cell viability (%) (Mean) (Hep G2 cells [4]; [10]) | Whole body at 24 h (p/s) (Mean) (Balb/c mice) | Whole body at 72 h (p/s) (Mean) (Balb/c mice) | Injection site Skin (p/s) (C57BL/6J mice) | Lymph node (p/s) (C57BL/6J mice) | Whole body (p/s) (C57BL/6J mice) | Edema, subcutaneous, focal, Grade (injection site skin) | Erosion, focal, Grade (injection site skin) | Infiltration, mononuclear cells, dermis/subcutaneous, focal, Grade (injection site skin) | Total score (injection site skin) | other results |
| --- | --- | --- | --- | --- | --- | --- | --- | --- | --- | --- | --- | --- | --- | --- | --- | --- | --- | --- | --- | --- | --- |
| 0.04 | 0.08 | 76.34 nm | 64.73 nm | 0.16 | 97.94% | 97.13% | CCCCC/C=C\C/C=C\CCCCCCCC(=O)N[C@@H](COC(=O)NCCN1CCCCCC1)C(=O)OCCCCCCCC(=O)OC(CCCCCCCC)CCCCCCCC [Lipid 602] | 5.82E+05 | 6.30E+05 | 82.68% | 84.17% | 2.66E+08 p/s | 1.24E+08 p/s | 3.02E+07 p/s | 3.01E+06 p/s | 1.40E+08 p/s | 1 (2×) and 2 | — | 1 | 7 | Size [1, 5]: 67.47 nm; EE (%) [2, 5]: 95.79%; hEPO conc. (ng/mL) at 2 h (hEPO): 1.02 ng/mL; hEPO conc. (ng/mL) at 6 h (hEPO): 5.02 ng/mL; hEPO conc. (ng/mL) at 24 h (hEPO): 7.65 ng/mL; hEPO conc. (ng/mL) at 48 h (hEPO): 2.44 ng/mL; hEPO conc. (ng/mL) at 72 h (hEPO): 0.76 ng/mL |
|  | 0.05 | 76.53 nm | 59.50 nm | 0.09 | 97.08% | 96.20% | CCCCC/C=C\C/C=C\CCCCCCCC(=O)N[C@H](COC(=O)NCCN1CCCCCC1)C(=O)OCCCCCC(=O)OC(CCCCCCCC)CCCCCCCC [Lipid 730] | 5.98E+05 | 7.72E+05 | 75.29% | 98.64% | 2.24E+08 p/s | 8.49E+07 p/s | 1.63E+07 p/s | 3.33E+06 p/s | 2.81E+07 p/s | 1 | — | 1 | 6 |  |

Continued, compound first:

| Compound | PDI [1, 5] | PDI [1, 6] | Size [1, 6] | Size (nm) [1] | PDI [1, 7] | EE (%) [2, 6] | EE (%) [2, 7] | In vitro Expression (Mean) (Hep G2 cells [3]; Formulation 001, RNA 331) | In vitro Expression (Mean) (Hep G2 cells [3]; [8]) | In vitro cell viability (%) (Mean) (Hep G2 cells [4]; [9]) | In vitro cell viability (%) (Mean) (Hep G2 cells [4]; [10]) | Whole body at 24 h (p/s) (Mean) (Balb/c mice) | Whole body at 72 h (p/s) (Mean) (Balb/c mice) | Injection site Skin (p/s) (C57BL/6J mice) | Lymph node (p/s) (C57BL/6J mice) | Whole body (p/s) (C57BL/6J mice) | Edema, subcutaneous, focal, Grade (injection site skin) | Erosion, focal, Grade (injection site skin) | Infiltration, mononuclear cells, dermis/subcutaneous, focal, Grade (injection site skin) | Total score (injection site skin) | other results |
| --- | --- | --- | --- | --- | --- | --- | --- | --- | --- | --- | --- | --- | --- | --- | --- | --- | --- | --- | --- | --- | --- |
| CCCCC/C=C\C/C=C\CCCCCCCC(=O)NC(COC(=O)NCCN1CCCCCC1)C(=O)OCCCCCCCC(=O)OC(CCCCCCCC)CCCCCCCC (centres unmarked) [Lipid 550] | 0.04 | 0.15 | 72.66 nm | 67.81 nm | 0.13 | 94.50% | 94.88% | 1.89E+05 | 5.74E+05 | 67.09% | 87.47% | 2.36E+08 p/s | 4.96E+07 p/s | 1.33E+07 p/s | 2.06E+06 p/s | 3.09E+07 p/s | 1 | 1 and — (2×) | 1 | 7 | Size [1, 5]: 66.58 nm; EE (%) [2, 5]: 92.20%; hEPO conc. (ng/mL) at 2 h (hEPO): 1.56 ng/mL; hEPO conc. (ng/mL) at 6 h (hEPO): 6.19 ng/mL; hEPO conc. (ng/mL) at 24 h (hEPO): 9.69 ng/mL; hEPO conc. (ng/mL) at 48 h (hEPO): 2.38 ng/mL; hEPO conc. (ng/mL) at 72 h (hEPO): 0.67 ng/mL |
| CCCCC/C=C\C/C=C\CCCCCCCC(=O)N[C@@H](COC(=O)NCCN1CCCCC1)C(=O)OCCCCCCCC(=O)OC(CCCCCCCC)CCCCCCCC [Lipid 601] | 0.04 | 0.09 | 80.16 nm | 62.33 nm | 0.08 | 95.30% | 95.98% | 9.94E+05 | 6.24E+05 | 81.18% | 98.14% | 3.82E+08 p/s | 8.02E+07 p/s | 9.69E+06 p/s | 1.89E+06 p/s | 5.92E+07 p/s | 1 | — | 1 | 6 | Size [1, 5]: 73.40 nm; EE (%) [2, 5]: 90.47%; hEPO conc. (ng/mL) at 2 h (hEPO): 1.12 ng/mL; hEPO conc. (ng/mL) at 6 h (hEPO): 7.35 ng/mL; hEPO conc. (ng/mL) at 24 h (hEPO): 12.74 ng/mL; hEPO conc. (ng/mL) at 48 h (hEPO): 3.29 ng/mL; hEPO conc. (ng/mL) at 72 h (hEPO): 1.06 ng/mL |
| CCCCC/C=C\C/C=C\CCCCCCCC(=O)NC(COC(=O)NCCN1CCCCCC1)C(=O)OCCCCCC(=O)OCC(CCCCCCCC)CCCCCCCCCC (centres unmarked) [Lipid 729] |  | 0.08 | 71.29 nm | 57.90 nm | 0.10 | 95.62% | 95.94% | 1.64E+05 | 3.44E+05 | 65.07% | 80.55% | 1.86E+08 p/s | 4.99E+07 p/s | 1.33E+07 p/s | 1.42E+06 p/s | 6.76E+07 p/s | 1 (2×) and — | — | 1 | 5 |  |

Reference: patent US20260200849A1, “CATIONIC LIPIDS AND PREPARATION METHOD THEREOF” (RiboX Therapeutics HK Limited, priority 2024, published 2026)
